Laboratory results from PubChem BioAssay AID489041 (Sanford-Burnham Center for Chemical Genomics, 2010).
Activity calls are given as the source filed them. No rule for the calls is given here.

System: HEK-293T NF-kB luciferase reporter counterscreen, luminescence
Assay: inhibitors of HEK-293T NF-kB luciferase – HEK-293T cells, luminescence, counter-screen for T-cell antigen receptor NF-kB inhibitors, dose response (AID 489041)

Row | SMILES | IC50
1 | O=S(=O)(Nc1ccc(F)cc1Cl)c1ccc(-c2cnc(C3CC3)o2)cc1 | 1.78 µM
2 | O=C1/C(=C/c2ccc(N3CCOCC3)o2)SC(=Nc2ccccc2)N1CCc1c[nH]c2ccccc12 | 13.8 µM
3 | COc1ccc(Nc2nc3cc(C)ccc3cc2C#N)c(OC)c1 | > 80 µM (inactive)
4 | CCCC(=O)NC(c1ccccc1Cl)c1ccc2cccnc2c1O (stereo not given) | > 80 µM (inactive)
5 | Nc1nc2n[nH]nc2c(=O)[nH]1 | > 80 µM (inactive)
6 | O=C(Nc1ccc(S(=O)(=O)N2CCCC2)cc1)c1ccc(CN2CCc3ccccc3C2)cc1 | 0.73 µM
7 | CC(=O)c1sc2c(c1OC(=O)c1ccc(Cl)cc1Cl)c(=O)n(-c1ccccc1)c(=S)n2-c1ccccc1 | 28.7 µM (inactive)
8 | COc1ccc(-n2nnnc2-c2ccccc2)cc1 | > 80 µM (inactive)
9 | COc1cc2c(cc1O)CC[C@@H]1[C@@H]2CC[C@]2(C)[C@@H](O)CC[C@@H]12 | 23 µM (inactive)
10 | COc1cc(C(=O)N2CCN(c3cccc(C)c3C)CC2)cc(OC)c1OC | 12.5 µM
11 | COC(=O)Cc1[nH]n(-c2nc3ccccc3s2)c(=O)c1C(C)=Nc1ccc(OC)cc1 | < 0.16 µM
12 | COc1ccc(NC(=O)/C(Cl)=C(/Cl)S(=O)Cc2ccc(Cl)cc2)cn1 (stereo not given) | 7.65 µM
13 | COc1cc(/C=C/[N+](=O)[O-])ccc1OCc1cccc(C(=O)O)c1 | 10.5 µM
14 | COC(=O)c1[nH]c2ccc(Br)cc2c1NC(=O)CN1CCN(C2CCCCC2)CC1 | 13.4 µM
15 | O=C(/C=C/c1cccc([N+](=O)[O-])c1)n1cnc2ccccc21 | 51.3 µM (inactive)
16 | Cc1ccc(C(=O)O/N=C(\N)c2ccccn2)c(Cl)c1 | 2.61 µM
17 | O=C1CC(c2cccc(Br)c2)c2cc3c(cc2N1)CCC3 (stereo not given) | 6.52 µM
18 | COC(=O)C[C@]1(C(=O)OC)CN(C#N)N(c2ccc(Cl)cc2)C12c1ccccc1-c1ccccc12 | 20.1 µM (inactive)
19 | Cc1ccc2cccc(NS(=O)(=O)c3ccccc3)c2n1 | > 80 µM (inactive)
20 | O=S(=O)(Nc1cccc2ncccc12)c1cccs1 | > 80 µM (inactive)
21 | O=C(NCCOc1ccccc1)c1cc([N+](=O)[O-])ccc1N1CCOCC1 | 72.2 µM (inactive)
22 | O=C(Cc1ccc(-c2ccccc2)cc1)NCc1ccccc1 | < 0.16 µM
23 | CCCN1C=CC(=C2C(=O)c3ccccc3C2=O)C=C1 | 1.1 µM
24 | COc1ccc(NC(=O)C(=O)NCC2CCCN2S(=O)(=O)c2ccc(C)cc2)cc1 (stereo not given) | 0.69 µM
25 | Nc1nc(Cl)cc(N2CCC(c3cc(-c4ccc(Cl)cc4)n[nH]3)CC2)n1 | 2.44 µM

Row | SMILES | IC50
26 | CCCCC(=O)NC(c1ccc(N(C)C)cc1)c1ccc2cccnc2c1O (stereo not given) | > 80 µM (inactive)
27 | CC(=O)O[C@H]1C(=O)[C@]2(C)[C@H]([C@H](OC(=O)c3ccccc3)[C@]3(O)C[C@H](OC(=O)[C@H](O)[C@@H](NC(=O)c4ccccc4)c4ccccc4)C(C)=C1C3(C)C)[C@]1(OC(C)=O)CO[C@@H]1C[C@@H]2O | 76.2 µM (inactive)
28 | CCCCCCCCCCCCCCCC[n+]1cccc(C(=O)N(CC)CC)c1 | 20.9 µM (inactive)
29 | COc1cc(C2c3cc4c(cc3C(OC3OC5COC(c6cccs6)OC5C(O)C3O)C3COC(=O)C23)OCO4)cc(OC)c1O (stereo not given) | > 80 µM (inactive)
30 | CCN(CC)c1ccc(/C=C/c2ccc3ccc(OC)cc3[n+]2CC)cc1 | 0.72 µM
31 | CC(=O)N(C)C1=C(N2CCOCC2)C(=O)c2ccccc2C1=O | 5.29 µM
32 | CCOC(=O)c1[nH]c(C)c(C(=O)c2cc(F)ccc2F)c1C | 6.54 µM
33 | Cc1csc2ncnc(NC3CCN(Cc4ccccc4)CC3)c12 | 2.22 µM
34 | CSC1=NC(C(Cl)(Cl)Cl)N=C(c2ccc(C)cc2)N1 (stereo not given) | 12.5 µM
35 | O[C@@H]1[C@@H](O)C=C2CCN3Cc4cc5c(cc4[C@H]1C23)OCO5 (stereo not given in full) | 1.97 µM
36 | Cc1ccc(S(=O)(=O)NCc2ccncc2)cc1C | 15.5 µM
37 | Cc1cc(C)cc(NS(=O)(=O)c2ccc(-c3cnc(C4CC4)o3)cc2)c1 | 1.8 µM
38 | O=C(Nc1ccc(S(=O)(=O)N2CCCCC2)cc1)c1ccc(CN2CCOCC2)cc1 | 3.95 µM
39 | COc1cc(-c2noc(C)c2-c2ccc3[nH]ccc3c2)cc(OC)c1OC | 2.45 µM
40 | COc1cccc(/C=N/Nc2ncnc3c2ncn3Cc2ccccc2)c1O | 0.25 µM
41 | COc1ccccc1N1CCN(C(=O)C2c3ccccc3Oc3ccccc32)CC1 | 14.2 µM
42 | Cc1c(C(=O)OCc2ccccc2)[nH]c2c1C(=O)CC(c1ccco1)C2 (stereo not given) | 10.1 µM
43 | CCOC(=O)CC1CCCCN1C(=O)c1cc(COc2cccc3cnccc23)on1 (stereo not given) | 1.81 µM
44 | CCOc1ccccc1NC(=O)Cn1nnc(C(=O)NCc2ccco2)c1N | 26.3 µM (inactive)
45 | O=C(c1cn(Cc2ccccc2)nc1-c1ccccc1)N1CCN(c2ccccn2)CC1 | > 80 µM (inactive)
46 | Cc1nnc(N/N=C/c2ccccn2)[nH]c1=O | > 80 µM (inactive)
47 | CCOC(=O)c1ccc2nc(Nc3nc4ccc(F)cc4s3)sc2c1 | 1.14 µM
48 | CCCCCCCCCCCCCCCC[n+]1ccc(C(N)=O)cc1 | 46.7 µM (inactive)
49 | Cc1ccc2[nH]c(-c3cccc(F)c3)cc(=O)c2c1 | > 80 µM (inactive)
50 | COc1ccc(NC(=O)Cn2nnc(-c3ccccc3NS(=O)(=O)c3ccc(OC)cc3)n2)cc1 | 13.6 µM
